Test results as given in patent publication US20220002314A1 (priority 2018, published 2022).
Like-named read-outs stand apart in the source and are kept apart here. Each block holds one molecule with its values, some of them ahead of it.

What was measured:
[1] = target: Human α2δ-1 subunit of Cav2.2 calcium channel (Homo sapiens, UniProt P54289); test: biochemical; format: binding
[2] = target: Human μ-opioid receptor (Homo sapiens, UniProt P35372); test: biochemical; format: binding
Chain of Human μ-opioid receptor (P35372 whole entry): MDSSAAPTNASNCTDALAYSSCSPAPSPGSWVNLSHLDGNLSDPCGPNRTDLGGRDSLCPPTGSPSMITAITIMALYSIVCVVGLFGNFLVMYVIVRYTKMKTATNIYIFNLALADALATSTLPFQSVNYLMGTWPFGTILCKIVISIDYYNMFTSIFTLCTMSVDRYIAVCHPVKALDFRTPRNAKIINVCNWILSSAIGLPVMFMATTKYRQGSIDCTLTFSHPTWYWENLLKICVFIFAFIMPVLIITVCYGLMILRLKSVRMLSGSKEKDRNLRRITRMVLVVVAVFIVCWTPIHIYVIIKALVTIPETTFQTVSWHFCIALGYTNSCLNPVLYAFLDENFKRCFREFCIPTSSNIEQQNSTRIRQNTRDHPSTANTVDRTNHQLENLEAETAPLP

Chain of Human α2δ-1 subunit of Cav2.2 calcium channel (P54289 25-1103): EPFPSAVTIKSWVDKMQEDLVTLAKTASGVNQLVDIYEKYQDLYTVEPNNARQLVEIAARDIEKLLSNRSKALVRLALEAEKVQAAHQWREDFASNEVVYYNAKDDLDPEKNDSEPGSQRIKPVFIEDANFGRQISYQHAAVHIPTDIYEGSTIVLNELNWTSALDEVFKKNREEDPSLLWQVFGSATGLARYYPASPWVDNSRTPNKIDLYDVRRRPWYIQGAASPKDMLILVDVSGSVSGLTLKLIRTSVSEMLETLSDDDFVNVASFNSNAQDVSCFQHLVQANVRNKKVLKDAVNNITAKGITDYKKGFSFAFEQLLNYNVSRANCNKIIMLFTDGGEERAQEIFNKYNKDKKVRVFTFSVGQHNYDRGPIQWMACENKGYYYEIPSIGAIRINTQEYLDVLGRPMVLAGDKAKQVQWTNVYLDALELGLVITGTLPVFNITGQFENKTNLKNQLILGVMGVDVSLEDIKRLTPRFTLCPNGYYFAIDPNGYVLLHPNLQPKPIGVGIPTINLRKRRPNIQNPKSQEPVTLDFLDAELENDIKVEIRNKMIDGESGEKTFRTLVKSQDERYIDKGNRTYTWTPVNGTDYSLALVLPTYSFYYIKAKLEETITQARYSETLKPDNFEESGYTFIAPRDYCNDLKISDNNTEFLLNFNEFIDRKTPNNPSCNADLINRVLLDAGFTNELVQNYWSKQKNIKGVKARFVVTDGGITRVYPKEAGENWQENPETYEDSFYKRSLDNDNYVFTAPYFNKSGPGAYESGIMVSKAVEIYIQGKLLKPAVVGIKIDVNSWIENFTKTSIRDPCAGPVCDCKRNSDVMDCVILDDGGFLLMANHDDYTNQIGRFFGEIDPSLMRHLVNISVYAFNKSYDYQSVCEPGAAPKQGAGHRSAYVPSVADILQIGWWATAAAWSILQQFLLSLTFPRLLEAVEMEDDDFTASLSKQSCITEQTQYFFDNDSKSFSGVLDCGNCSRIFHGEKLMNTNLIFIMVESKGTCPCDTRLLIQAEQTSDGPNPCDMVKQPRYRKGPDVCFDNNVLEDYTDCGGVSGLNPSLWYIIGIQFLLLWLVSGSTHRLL

Compound: CCC[C@@H](c1nc2ncc(Br)cc2c(=O)n1CC1CC1)N1CCN[C@@H](C)C1 [Example 74, 6-Bromo-3-(cyclopropylmethyl)-2-((S)-1-((S)-3-methylpiperazin-1-yl)butyl)pyrido[2,3-d]pyrimidin-4(3H)-one]
Ki [1]: > 5 µM
Ki [2]: > 0.5 µM

Compound: CCC[C@H](c1nc2ncc(Br)cc2c(=O)n1CC1CC1)N1CCN[C@@H](C)C1 [Example 75, 6-bromo-3-(cyclopropylmethyl)-2-((R)-1-((S)-3-methylpiperazin-1-yl)butyl)pyrido[2,3-d]pyrimidin-4(3H)-one]
Ki [1]: < 0.5 µM
Ki [2]: > 0.5 µM

Compound: CCC[C@H](c1nc2ncc(Cl)cc2c(=O)n1CC)N1CCN[C@@H](C)C1 [Example 76, 6-Chloro-3-ethyl-2-((R)-1-((S)-3-methylpiperazin-1-yl)butyl)pyrido[2,3-d]pyrimidin-4(3H)-one]
Ki [1]: < 0.5 µM
Ki [2]: 0.1 to 0.5 µM

Compound: CCC[C@@H](c1nc2nc(C(F)(F)F)ccc2c(=O)n1CC)N1CCN[C@@H](C)C1 [Example 77, 3-Ethyl-2-((S)-1-((S)-3-methylpiperazin-1-yl)butyl)-7-(trifluoromethyl)pyrido[2,3-d]pyrimidin-4(3H)-one]
Ki [1]: > 5 µM
Ki [2]: > 0.5 µM

Compound: CCC[C@H](c1nc2nc(C(F)(F)F)ccc2c(=O)n1CC)N1CCN[C@@H](C)C1 [Example 78, 3-ethyl-2-((R)-1-((S)-3-methylpiperazin-1-yl)butyl)-7-(trifluoromethyl)pyrido[2,3-d]pyrimidin-4(3H)-one]
Ki [1]: < 0.5 µM
Ki [2]: > 0.5 µM

Compound: CCCC(c1nc2ccc(Br)cc2c(=O)n1CC)N1CCNCC1 (centres unmarked) [Example 79, 6-Bromo-3-ethyl-2-(1-(piperazin-1-yl)butyl)quinazolin-4(3H)-one]
Ki [1]: < 0.5 µM
Ki [2]: > 0.5 µM

Ki ([1]; read-out: α2δ-1 binding): 0.5 to 5 µM
Ki ([2]; read-out: μ-binding): > 0.5 µM
Compound: CCCC(c1nc2ccccc2c(=O)n1C)N1CCNCC1 (centres unmarked) [Example 80, 3-methyl-2-(1-(piperazin-1-yl)butyl)quinazolin-4(3H)-one]

Compound: CCCC(c1nc2cc(Br)ccc2c(=O)n1CC)N1CCNCC1 (centres unmarked) [Example 81, 7-bromo-3-ethyl-2-(1-(piperazin-1-yl)butyl)quinazolin-4(3H)-one]
Ki [1]: < 0.5 µM
Ki [2]: > 0.5 µM

Compound: CCCC(c1nc2ccc(Br)cc2c(=O)n1CCC)N1CCNCC1 (centres unmarked) [Example 82, 6-bromo-2-(1-(piperazin-1-yl)butyl)-3-propylquinazolin-4(3H)-one]
Ki [1]: < 0.5 µM
Ki [2]: 0.1 to 0.5 µM

Compound: CCCC(c1nc2cc(F)c(Br)cc2c(=O)n1CC)N1CCNCC1 (centres unmarked) [Example 83, 6-bromo-3-ethyl-7-fluoro-2-(1-(piperazin-1-yl)butyl)quinazolin-4(3H)-one]
Ki [1]: < 0.5 µM
Ki [2]: 0.1 to 0.5 µM

Compound: CCCC(c1nc2ccc(Br)c(C)c2c(=O)n1CC)N1CCNCC1 (centres unmarked) [Example 84, 6-bromo-3-ethyl-5-methyl-2-(1-(piperazin-1-yl)butyl)quinazolin-4(3H)-one]
Ki [1]: 0.5 to 5 µM
Ki [2]: 0.1 to 0.5 µM

Compound: CCCC(c1nc2cc(C)c(Br)cc2c(=O)n1CC)N1CCNCC1 (centres unmarked) [Example 85, 6-bromo-3-ethyl-7-methyl-2-(1-(piperazin-1-yl)butyl)quinazolin-4(3H)-one]
Ki [1]: < 0.5 µM
Ki [2]: > 0.5 µM

Compound: CCCC(c1nc2cc(F)c(F)cc2c(=O)n1CC)N1CCNCC1 (centres unmarked) [Example 86, 3-ethyl-6,7-difluoro-2-(1-(piperazin-1-yl)butyl)quinazolin-4(3H)-one]
Ki [1]: < 0.5 µM
Ki [2]: > 0.5 µM

Compound: CCCC(c1nc2c(F)cc(Br)cc2c(=O)n1CC)N1CCNCC1 (centres unmarked) [Example 87, 6-bromo-3-ethyl-8-fluoro-2-(1-(piperazin-1-yl)butyl)quinazolin-4(3H)-one]
Ki [1]: 0.5 to 5 µM
Ki [2]: 0.1 to 0.5 µM

Compound: CCCC(c1nc2ccc(Br)c(F)c2c(=O)n1CC)N1CCNCC1 (centres unmarked) [Example 88, 6-bromo-3-ethyl-5-fluoro-2-(1-(piperazin-1-yl)butyl)quinazolin-4(3H)-one]
Ki [1]: < 0.5 µM
Ki [2]: > 0.5 µM

Compound: CCCC(c1nc2c(C)cc(Br)cc2c(=O)n1CC)N1CCNCC1 (centres unmarked) [Example 89, 6-bromo-3-ethyl-8-methyl-2-(1-(piperazin-1-yl)butyl)quinazolin-4(3H)-one]
Ki [1]: > 5 µM
Ki [2]: < 0.1 µM
